From patent US20050197402A1 (priority 2004, published 2005)

Test: Modulated differential scanning calorimetry (MDSC/DSC), thermal stability / decomposition
Type: physicochemical
Conditions: for onset of decomposition: MDSC data
From the text: Differential Scanning Calorimetry (DSC) measures heat flow as a function of time or temperature and is used to study material transformation whether they be physical, such as phase changes, or chemical, such as decomposition. There are several parameters that can be obtained from a DSC thermogram. In the present work, the focus was on the onset temperature, the temperature of the peak minimum, and the peak width. DSC information is useful in understanding the purity and nature of material. For example, when a pure crystalline substance melts, the melting point is sharp. In DSC, that sharpness is shown by a narrow melting peak in the thermogram. If there are impurities or defects in the crystalline nature, the melting takes place at lower temperatures and over a larger range of temperatures. In DSC, the impurities are shown by a lower onset temperature and peak temperature, and a broader peak in the thermogram. When there are discrete impurities, they can melt at their melting points. In DSC, discrete impurities can be shown by additional peaks in the thermogram.
While a decomposition curve is usually broader and can be more complicated, some of the same phenomena are seen as with melting. Impurities and defects will cause broader and lower temperature peaks. Discrete impurities can show their own decomposition peaks.
These were made at slightly different stoichiometries. The onset temperature, the temperature at peak minimum, and the peak width are labeled.

[1] = modulated DSC thermogram, spray-dried polymorph of PMC2, K:Mg ratio less than 4.0

Molecule | onset of decomposition | endothermic peak for decomposition: onset temperature [1] | endothermic peak for decomposition: peak minimum temperature [1] | endothermic peak for decomposition: peak width [1] | DSC decomposition behaviour (in words) (spray-dried sample in a vented pan, compared to sample dried in an oven or at room temperature)
O=C([O-])CC(O)(CC(=O)[O-])C(=O)[O-].O=C([O-])CC(O)(CC(=O)[O-])C(=O)[O-].[K+].[K+].[K+].[K+].[Mg+2] [PMC2, potassium magnesium citrate] | approximately 310 °C | greater than 320 °C | greater than 327 °C | less than 9 °C | 
O=C([O-])CC(O)(CC(=O)[O-])C(=O)[O-].O=C([O-])CC(O)(CC(=O)[O-])C(=O)[O-].[K+].[K+].[K+].[K+].[Mg+2] [PMC, potassium magnesium citrate] |  |  |  |  | decomposed at a much lower temperature and with a broader decomposition peak
O=C([O-])CC(O)(CC(=O)[O-])C(=O)[O-].[K+].[K+].[K+] [potassium citrate, reference compound] | 260 °C |  |  |  | 
magnesium citrate [reference compound] | 250 °C |  |  |  | 
